In patent US8067447B2, “Modulators of glucocorticoid receptor, AP-1, and/or NF-κB activity and use thereof” (Bristol-Myers Squibb Company, priority 2006, dated 2011) one finds EC50 and Ki data, which are given here for 26 compounds.

For assay [1], the system named is AP-1 induced transcriptional activity. The assay can be described thus: Cellular Transrepressional Assay (AP-1 luciferase reporter in A549 cells, PMA-activated). In kind it is cell-based. The settings on record: Homo sapiens, A549, 7 h, A549 cells with 7x AP-1 luciferase reporter, 10 ng/ml PMA, read-out: AP-1 (EC50, nM) (Cellular Transrepression Assay). In a few lines: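 Stable A549 AP-1 (7× sites) luciferase reporter line stimulated with 10 ng/ml PMA plus test molecules (0.1 nM to 40 μM) for 7 h. Luminescence read after 10 min with luciferase reagent; EC50 from % decrease of PMA-induced signal.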

Assay [2] has as its target T1, human full-length glucocorticoid receptor (Homo sapiens, UniProt P04150).
T1 construct: a cell lysate containing recombinantly expressed human full-length glucocorticoid receptor; purchased PanVera Co., Madison, Wis; P2816
T1 sequence (P04150 1-777): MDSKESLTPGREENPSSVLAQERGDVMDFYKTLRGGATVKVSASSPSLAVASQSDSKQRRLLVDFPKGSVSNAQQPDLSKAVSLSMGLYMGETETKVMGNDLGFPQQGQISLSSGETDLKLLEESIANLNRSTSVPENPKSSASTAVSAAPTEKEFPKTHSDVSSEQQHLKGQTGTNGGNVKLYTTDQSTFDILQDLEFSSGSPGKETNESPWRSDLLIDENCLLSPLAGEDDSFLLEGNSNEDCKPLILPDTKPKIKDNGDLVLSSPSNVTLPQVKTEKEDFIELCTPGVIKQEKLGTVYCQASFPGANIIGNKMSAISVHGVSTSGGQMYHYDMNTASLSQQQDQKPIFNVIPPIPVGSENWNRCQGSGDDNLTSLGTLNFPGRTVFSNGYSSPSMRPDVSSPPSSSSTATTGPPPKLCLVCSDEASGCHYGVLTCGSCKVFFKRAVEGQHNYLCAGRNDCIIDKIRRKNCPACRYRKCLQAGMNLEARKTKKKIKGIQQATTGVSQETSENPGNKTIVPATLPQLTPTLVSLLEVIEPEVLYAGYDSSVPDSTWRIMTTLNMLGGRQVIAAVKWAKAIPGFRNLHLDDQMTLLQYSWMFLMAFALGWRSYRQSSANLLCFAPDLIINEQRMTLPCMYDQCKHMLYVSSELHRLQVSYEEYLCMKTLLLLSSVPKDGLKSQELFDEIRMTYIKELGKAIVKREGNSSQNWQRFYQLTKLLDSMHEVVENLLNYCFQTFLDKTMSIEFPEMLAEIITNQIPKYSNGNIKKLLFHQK
Briefly: Glucocorticoid Receptor Binding Assay (II), fluorescence polarization competitor kit (Fluormone GS1). Conditions: cell lysate with recombinant human full-length GR, 1 nM Fluormone GS1, FP. Here is the method:
In order to measure the binding of compounds on the glucocorticoid receptor a commercially available kit was used (Glucocorticoid receptor competitor assay kit, PanVera Co., Madison, Wis., P2816). Briefly, a cell lysate containing recombinantly expressed human full-length glucocorticoid receptor was mixed with a fluorescently labeled glucocorticoid (1 nM Fluormone GS1) in the presence or absence of test compound. After one hour at room temperature, the fluorescence polarization (FP) of the samples were measured.

As to `CC(C)(C(=O)Nc1nncs1)C(c1cccc(F)c1)c1ccc2c(cnn2-c2ccc(F)cc2)c1` (stereo not shown) [Example 52, 3-(3-fluorophenyl)-3-(1-(4-fluorophenyl)-1H-indazol-5-yl)-2,2-dimethyl-N-(1,3,4-thiadiazol-2-yl)propanamide], the EC50 in assay [1] turned out to be 8.1 nM. Also, the Ki in assay [2] came out at 1.3 nM.

Consider `CC(C)(C(=O)Nc1nncs1)C(c1ccc(F)cc1)c1ccc2c(cnn2-c2ccc(F)cc2)c1` (stereo not shown) [Example 53, 3-(4-fluorophenyl)-3-(1-(4-fluorophenyl)-1H-indazol-5-yl)-2,2-dimethyl-N-(1,3,4-thiadiazol-2-yl)propanamide], for which, in assay [1], the 50% effective concentration (EC50) came out at 13 nM. Further, the inhibition constant (Ki) in assay [2] turned out to be 1.9 nM.

Take `C/C=C/CC(c1ccc2c(cnn2-c2ccc(F)cc2)c1)C(C)(C)C(=O)Nc1nncs1` (stereo not shown) [Example 55, (E)-3-(1-(4-fluorophenyl)-1H-indazol-5-yl)-2,2-dimethyl-N-(1,3,4-thiadiazol-2-yl)hept-5-enamide]: in assay [1], the EC50 was determined as 2500 nM. Moreover, the Ki in assay [2] worked out at 1.3 nM.

On to `CC(C)=CC(c1ccc2c(cnn2-c2ccc(F)cc2)c1)C(C)(C)C(=O)Nc1nncs1` (stereo not shown) [Example 56, 3-(1-(4-fluorophenyl)-1H-indazol-5-yl)-2,2,5-trimethyl-N-(1,3,4-thiadiazol-2-yl)hex-4-enamide], for which the EC50 in assay [1] stood at 4 nM. Besides, the inhibitory constant (Ki) in assay [2] is 1.3 nM.

`COC(=O)c1ccc(-n2ncc3cc(C(c4ccccc4)C(C)(C)C(=O)Nc4nncs4)ccc32)cc1` (stereo not shown) [Example 88, methyl 4-(5-(3-(1,3,4-thiadiazol-2-ylamino)-2,2-dimethyl-3-oxo-1-phenylpropyl)-1H-indazol-1-yl)benzoate]: the EC50 in assay [1] is over 10000 nM. Besides, the Ki in assay [2] was found to be 26 nM.

Consider `CC(C)(C(=O)Nc1nncs1)C(c1ccccc1)c1ccc2c(cnn2-c2ccc(C(=O)O)cc2)c1` (stereo not shown) [Example 89, 4-(5-(3-(1,3,4-thiadiazol-2-ylamino)-2,2-dimethyl-3-oxo-1-phenylpropyl)-1H-indazol-1-yl)benzoic acid], for which the half-maximal effective concentration (EC50) in assay [1] was over 10000 nM. In addition, the Ki in assay [2] came to 27 nM.

Consider `COc1cccc(-n2ncc3cc(C(c4ccccc4)C(C)(C)C(=O)Nc4nncs4)ccc32)c1` (stereo not shown) [Example 94, 3-(1-(3-methoxyphenyl)-1H-indazol-5-yl)-2,2-dimethyl-3-phenyl-N-(1,3,4-thiadiazol-2-yl)propanamide], for which, in assay [1], the EC50 was 1200 nM. Moreover, in assay [2], the Ki was determined as 36 nM.

Take `COc1cc(F)ccc1-n1ncc2cc([C@H](c3ccccc3)C(C)(C)C(=O)Nc3nncs3)ccc21` [Example 96, (3S)-3-(1-(4-fluoro-2-methoxyphenyl)-1H-indazol-5-yl)-2,2-dimethyl-3-phenyl-N-(1,3,4-thiadiazol-2-yl)propanamide]: the EC50 in assay [1] amounted to 23 nM. For the same compound, in assay [2], the Ki was determined as 3.1 nM.

As for `CC(C)(C(=O)Nc1nncs1)[C@@H](c1ccccc1)c1ccc2c(cnn2-c2ccc(F)cc2C#N)c1` [Example 97, (3S)-3-(1-(2-cyano-4-fluorophenyl)-1H-indazol-5-yl)-2,2-dimethyl-3-phenyl-N-(1,3,4-thiadiazol-2-yl)propanamide], the EC50 in assay [1] was over 2500 nM. Further, the Ki in assay [2] is 5.5 nM.

As to `CC(C)(C(=O)Nc1nncs1)C1(c2ccc3c(cnn3-c3ccc(F)cc3)c2)CCCCC1` [Example 101, 2-(1-(1-(4-Fluorophenyl)-1H-indazol-5-yl)cyclohexyl)-2-methyl-N-(1,3,4-thiadiazol-2-yl)propanamide], the EC50 in assay [1] amounted to 36 nM. In addition, in assay [2], the Ki amounted to 1 nM.

As for `CC(C)(C(=O)Nc1nccs1)C1(c2ccc3c(cnn3-c3ccc(F)cc3)c2)CCCCC1` [Example 102, 2-(1-(1-(4-Fluorophenyl)-1H-indazol-5-yl)cyclohexyl)-2-methyl-N-(thiazol-2-yl)propanamide], the EC50 in assay [1] turned out to be 12 nM. Further, the Ki in assay [2] was 2.8 nM.

As for `CC(C)c1cc2c(cnn2-c2ccc(F)cc2)cc1CC(C)(C)C(=O)Nc1nncs1` [Example 104], the 50% effective concentration (EC50) in assay [1] is over 10000 nM. In assay [2], the Ki is 1.6 nM.

Take `Cc1cc2c(cnn2-c2ccc(F)cc2)cc1CC(C)(C)C(=O)Nc1nncs1` [Example 105]: the EC50 in assay [1] came to 1.9 nM. In addition, the Ki in assay [2] came out at 5.6 nM.

As to `Cc1cc2c(cnn2-c2ccc(F)cc2)cc1CC(C)C(=O)Nc1nncs1` (stereo not shown) [Example 106, 3-(1-(4-Fluorophenyl)-6-methyl-1H-indazol-5-yl)-2-methyl-N-(1,3,4-thiadiazol-2-yl)propanamide], in assay [1], the EC50 was 160 nM. In addition, the Ki in assay [2] worked out at 1 nM.

Turning to `CC(C)(C(=O)Nc1nccs1)C(C)(C)c1ccc2c(cnn2-c2ccc(F)cc2)c1` [Example 113, 3-(1-(4-Fluorophenyl)-1H-indazol-5-yl)-2,2,3-trimethyl-N-(thiazol-2-yl)butanamide], the EC50 in assay [1] is 107 nM. Further, in assay [2], the Ki is 5.1 nM.

Take `CC(C)(CC(=O)Nc1nccs1)c1ccc2c(cnn2-c2ccc(F)cc2)c1` [Example 114, 3-(1-(4-Fluorophenyl)-1H-indazol-5-yl)-3-methyl-N-(thiazol-2-yl)butanamide]: the EC50 in assay [1] was over 10000 nM. Further, the Ki in assay [2] came to 11 nM.

As for `CC(C)(C(=O)NC1CCCC1O)C(C)(C)c1ccc2c(cnn2-c2ccc(F)cc2)c1` (stereo not shown) [Example 121, 3-(1-(4-fluorophenyl)-1H-indazol-5-yl)-N-(2-hydroxycyclopentyl)-2,2,3-trimethylbutanamide], the EC50 in assay [1] worked out at 1730 nM. For the same compound, the Ki in assay [2] turned out to be 8.3 nM.

As for `CC(C)(CC(=O)Nc1nncs1)c1ccc2c(cnn2-c2ccc(F)cc2)c1` [Example 122, 3-(1-(4-fluorophenyl)-1H-indazol-5-yl)-3-methyl-N-(1,3,4-thiadiazol-2-yl)butanamide], in assay [1], the EC50 is over 10000 nM. In addition, in assay [2], the Ki is 2.3 nM.

Regarding `CC(C)(C(=O)Nc1nncs1)C(Cc1ccccc1)c1ccc2c(cnn2-c2ccc(F)cc2)c1` (stereo not shown) [Example 123, 3-(1-(4-fluorophenyl)-1H-indazol-5-yl)-2,2-dimethyl-4-phenyl-N-(1,3,4-thiadiazol-2-yl)butanamide], in assay [1], the EC50 came out at 705 nM. The Ki in assay [2] came to 1.1 nM.

With `Cc1ccc(CC(c2ccc3c(cnn3-c3ccc(F)cc3)c2)C(C)(C)C(=O)NC2CCCC2O)cc1` (stereo not shown) [Example 125, 3-(1-(4-fluorophenyl)-1H-indazol-5-yl)-N-(2-hydroxycyclopentyl)-2,2-dimethyl-4-p-tolylbutanamide], the EC50 in assay [1] is over 10000 nM. Besides, in assay [2], the Ki worked out at 9.9 nM.

On to `Cc1ccc(CC(c2ccc3c(cnn3-c3ccc(F)cc3)c2)C(C)(C)C(=O)Nc2nccs2)cc1` (stereo not shown) [Example 126, 3-(1-(4-fluorophenyl)-1H-indazol-5-yl)-2,2-dimethyl-N-(thiazol-2-yl)-4-p-tolylbutanamide], for which, in assay [1], the EC50 is over 10000 nM. In assay [2], the Ki is 6.8 nM.

Regarding `Cc1ccc(CC(c2ccc3c(cnn3-c3ccc(F)cc3)c2)C(C)(C)C(=O)Nc2nncs2)cc1` (stereo not shown) [Example 127, 3-(1-(4-fluorophenyl)-1H-indazol-5-yl)-2,2-dimethyl-N-(1,3,4-thiadiazol-2-yl)-4-p-tolylbutanamide], the EC50 in assay [1] is over 10000 nM. In addition, in assay [2], the Ki was 3.8 nM.

In the case of `CC(C)(C(=O)NC1CC1)C(Cc1ccccc1)c1ccc2c(cnn2-c2ccc(F)cc2)c1` (stereo not shown) [Example 128, N-cyclopropyl-3-(1-(4-fluorophenyl)-1H-indazol-5-yl)-2,2-dimethyl-4-phenylbutanamide], the EC50 in assay [1] was 673 nM. Moreover, in assay [2], the Ki is 0.68 nM.

For the compound `CC(C)(C(=O)NC1CCC1)C(Cc1ccccc1)c1ccc2c(cnn2-c2ccc(F)cc2)c1` (stereo not shown) [Example 129, N-cyclobutyl-3-(1-(4-fluorophenyl)-1H-indazol-5-yl)-2,2-dimethyl-4-phenylbutanamide], the EC50 in assay [1] turned out to be 106 nM. Moreover, the Ki in assay [2] came to 0.87 nM.

Consider `CC(C)(C(=O)NC1CCOCC1)C(Cc1ccccc1)c1ccc2c(cnn2-c2ccc(F)cc2)c1` (stereo not shown) [Example 132, 3-(1-(4-fluorophenyl)-1H-indazol-5-yl)-2,2-dimethyl-4-phenyl-N-(tetrahydro-2H-pyran-4-yl)butanamide], for which, in assay [1], the EC50 was over 10000 nM. Moreover, the Ki in assay [2] came out at 7.8 nM.

As for `CC(C)(C(=O)NC1CCNCC1)C(Cc1ccccc1)c1ccc2c(cnn2-c2ccc(F)cc2)c1` (stereo not shown) [Example 133, 3-(1-(4-fluorophenyl)-1H-indazol-5-yl)-2,2-dimethyl-4-phenyl-N-(piperidin-4-yl)butanamide], in assay [1], the EC50 was over 10000 nM. In addition, the Ki in assay [2] is 153 nM.
